pIC50: −log10 of the molar value.
Legend:
human factor Xa = molecular target: T1, human factor Xa (Homo sapiens, UniProt P00742); assay: Enzyme inhibition by synthetic substrate method (S-2222); format: biochemical; conditions: human factor Xa 0.025 U/ml, synthetic substrate S-2222, pH 8.4, 37° C., 10 minutes
T1 construct: purchased Enzyme Research Labs
Method: 2) Test of Measuring Enzyme Inhibition by Synthetic Substrate Method:
25 μl of a reaction buffer (pH 8.4), 5 μl of a test compound dissolved in DMSO or DMSO alone, and 10 μl of a synthetic substrate, 2 mM S-2222 (Chromogenix) were added to a 96-well microplate, then 10 μl of 0.025 U/ml human factor Xa was added thereto, and reacted at 37° C. for 10 minutes, and then the absorbance change at 405 nm was measured with Molecular Devices' Spectramax 340PC^384, and the IC50 value was calculated.

human plasma = assay: Extrinsic coagulation time (PT) in human plasma; conditions: HemosIL RecombiPlasTin
Method: 3) Extrinsic Coagulation Time (PT):
2 μl of a test compound dissolved in DMSO or DMSO alone, and 50 μl of physiological saline were added to 50 μl of human plasma warmed at 37° C. for 1 minute, then 100 μl of HemosIL RecombiPlasTin (Instrumentation Laboratory) was added, and the coagulation time was measured. For measuring the coagulation time, used was Amelung's KC10A. The CT2 value (the concentration for 2-fold prolongation of the coagulation time with DMSO) was calculated through linear regression, by plotting the relative value (fold) of the coagulation time to the control and the test compound concentration.

mouse plasma = assay: Ex vivo coagulation time with mice (oral administration), extrinsic coagulation time (PT); format: in vivo, male ICR mice; conditions: oral 100 mg/kg, 30 minutes after administration
Method: 4) Test of Measuring Ex Vivo Coagulation Time with Mice (Oral Administration):
To test animals of male ICR mice (body weight, about 40 g, SLC) that had been fasted for 12 hours or longer, a solution or suspension of a test compound dissolved in 0.5% methyl cellulose was forcedly orally administered (100 mg/kg), using a feeding needle; and after 30 minutes and after 2 hours, under anesthesia with diethyl ether, 1 ml of blood was collected from the mice through their postcaval vein in 3.8% sodium citrate to be 1/10 by volume, and centrifuged at 12000 rpm for 3 minutes to separate plasma therefrom. The extrinsic coagulation time (PT) and the intrinsic coagulation time (APTT) for this plasma were measured according to the following methods a) and b).
a) Extrinsic Coagulation Time (PT):
50 μl of the mouse plasma was warmed at 37° C. for 1 minute, and 100 μl of HemosIL RecombiPlasTin was added, and the coagulation time was counted. For measuring the coagulation time, used was Amelung's KC10A. The mouse plasma coagulation time with no test compound administration was control; and the coagulation time prolonging activity of the test compound was represented by a relative value to the control, 1.

T1 sequence (P00742 235-488 limits assumed): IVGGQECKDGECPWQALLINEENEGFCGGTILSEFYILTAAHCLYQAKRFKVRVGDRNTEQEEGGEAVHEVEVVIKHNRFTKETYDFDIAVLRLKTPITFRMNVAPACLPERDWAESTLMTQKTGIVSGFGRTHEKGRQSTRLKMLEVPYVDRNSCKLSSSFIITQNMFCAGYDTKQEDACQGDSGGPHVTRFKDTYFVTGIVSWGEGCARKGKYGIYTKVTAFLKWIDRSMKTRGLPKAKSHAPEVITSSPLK
T1 sequence (P00742 41-179 partner limits assumed): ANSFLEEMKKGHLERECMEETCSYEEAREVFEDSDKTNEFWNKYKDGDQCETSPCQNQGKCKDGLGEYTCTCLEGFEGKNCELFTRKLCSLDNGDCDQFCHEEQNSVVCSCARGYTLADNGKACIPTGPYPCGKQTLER

SMILES | pIC50 (human factor Xa) | CT2 value (the concentration for 2-fold prolongation of the coagulation time with DMSO) (human plasma) | coagulation time prolonging activity (relative value to the control, 1) (mouse plasma)
Cl.Cn1ccc(=O)c(-c2ccc(C(=O)Nc3c(O)cccc3C(=O)Nc3ccc(Cl)cn3)cc2)c1 [Example 1, N-(5-chloropyridin-2-yl)-3-hydroxy-2-{[4-(1-methyl-4-oxo-1,4-dihydropyridin-3-yl)benzoyl]amino}benzamide hydrochloride] | 8.17 | 0.34 µM | 
CN(C)CCn1cccc(-c2ccc(C(=O)Nc3c(O)cccc3C(=O)Nc3ccc(Cl)cn3)cc2)c1=O.Cl [Example 10] |  |  | 3.3 times
Cn1cccc(-c2ccc(C(=O)Nc3c(O)cccc3C(=O)Nc3ccc(Cl)cn3)cc2)c1=O [Example 30] | 8.08 |  | 
Cl.O=C(Nc1c(O)cccc1C(=O)Nc1ccc(Cl)cn1)c1ccc(-c2cccn(CCN3CCCOCC3)c2=O)cc1 [Example 42] |  | 0.65 µM | 
CN1CCC(OCCn2cccc(-c3ccc(C(=O)Nc4c(O)cc(Cl)cc4C(=O)Nc4ccc(Cl)cn4)cc3)c2=O)CC1.Cl [Example 78] |  |  | 3.9 times
